Like-named read-outs stand apart in the source and are kept apart here.
How the values were obtained:
CYP3A [1] = experiment: Effect of CYP inhibitors on formation of GAA metabolites in RLMs; assay type: in vitro ADME; conditions: rat, rat liver microsomes (RLMs), probe GAA (10 μM), formation of metabolite M2, RLMs 0.25 mg/ml, ketoconazole 10 μM
Procedure: (§1) GAA (10 μM) was incubated with 0.25 mg/ml RLMs or HLMs in the incubation system as described in Section Formation Kinetics of the Metabolites M2 and M4, in the present or absent of the following CYP enzymes inhibitors, 10 μM α- naphthoflavone (for CYP1A2), 100 μM ticlopidine (for CYP2C19), 10 μM quinidine (for CYP2D), 10 μM ketoconazole (for CYP3A), 100 μM fluconazole (for CYP2C9) and 100 μM diethyldithiocarbamate (for CYP2E1), respectively. The M2 and M4 formation rates in the present and absent of inhibitors were compared. The percentage of inhibition was calculated. Each of the incubations was performed in triplicate.

CYP3A [2] = experiment: Effect of CYP inhibitors on formation of GAA metabolites in HLMs; assay type: in vitro ADME; conditions: human, human liver microsomes (HLMs), probe GAA (10 μM), ketoconazole 10 μM
Procedure: as §1

EL4 syngeneic mice = system: EL4 syngeneic mice; set-up: method as in Radwan et al., 2015; conditions: ref Radwan et al., 2015, cited from earlier work
HepG2 cells = system: HepG2 cells; set-up: method as in Yao et al., 2012; conditions: ref Yao et al., 2012; cited from earlier work
[3] = system: rat liver microsomes (RLMs); experiment: In vitro metabolite identification, GAA incubated with RLMs; conditions: for Detected resource 4, RLMs: 100 μM GAA, 1.0 mg protein/ml RLMs, NADPH and UDPGA, 37°C, 1 h
Procedure: (§2) For in vitro metabolites identification, the enzyme incubation was performed in a medium containing 1.0 mg protein /ml RLMs or HLMs, 100 μM of GAA, 3.3 mM of MgCl2, 3.0 mM of NADPH, 3.0 mM of UDPGA and 100 mM of sodium phosphate buffer (pH 7.4). The total volume was 500 μl. The metabolism reaction was initiated by adding NADPH and UDPGA after 10 min preincubation at 37°C. The reaction was maintained at 37°C for 1 h and terminated by adding with 500 μl of ice-cold acetonitrile. The mixture was centrifuged at 20,000 g for 15 min, and 10 μl of the supernatant was directly injected for HPLC-DAD-MS/MS assay. Control samples were prepared as described above by using inactivated enzymes in the incubation system. Each of the incubations was performed in duplicate.
(§3) The identification of metabolites were conducted by a HPLC-DAD-MS/MS system equipped with an Agilent 1,260 HPLC system (Agilent Technologies, Santa Clara, CA, USA), 1,260 diode array detector (DAD) and 4,500 Q-Trap mass spectrometer with electrospray ionization source (AB SCIEX, Framingham, MA, USA). Chromatographic separation was performed on a C18 column (100 × 4.6 mm, 2.4 μm, BDS hypersil, Thermo, PA) maintained at 40°C. The mobile phase consisted of acetonitrile (A) and 0.1% formic acid aqueous solution (B) with following gradient elution at a flow rate of 0.40 ml/min: 0–10 min, 20–35% A; 10–20 min, 35% A; 20–25 min, 35–65% A; 25–30 min, 65% A; 30–35 min, 65–20% A; and 35–45 min, 20% A. The DAD spectral data was collected from 190 to 400 nm. The injection volume of all the tested samples was 10 μl. Mass data were acquired in negative mode under the following conditions, ion spray voltage −4,500 V, ion source temperature 450°C, curtain gas 10 psi, nebulizer gas 60 psi and auxiliary gas 60 psi. Data were collected using Analyst 1.6.2 (Applied Biosystems) in both first quadrupole (Q1) mass scan mode and multiple reaction monitoring (MRM) independent data acquisition (IDA) mode using enhanced product ion scans (EPI) and enhanced resolution (ER) in the ion trap mode.

[4] = system: human liver microsomes (HLMs); experiment: In vitro metabolite identification, GAA incubated with HLMs; conditions: for Detected resource 5, HLMs: 100 μM GAA, 1.0 mg protein/ml HLMs, NADPH and UDPGA, 37°C, 1 h
Procedure: as §2, §3

[5] = GAA metabolite identification in rat bile, plasma and urine after intravenous administration (HPLC-DAD-MS/MS); conditions: for Detected resource 1, rat bile: rat bile 0–4 h after i.v. GAA 20 mg/kg; for Detected resource 2, rat plasma: rat plasma 5 and 30 min after i.v. GAA 20 mg/kg; for Detected resource 3, rat urine: rat urine 0–4 h after i.v. GAA 20 mg/kg
Procedure: Male Sprague-Dawley rats (200 ± 20 g) were supplied by Beijing Vital Laboratory Animal Technology (Beijing, China). The animal experiment was approved by the Animal Ethics Committee at the Institute of Medicinal Plant Development, Chinese Academy of Medical Sciences. […] On the day before the experiment, the rats were suffered with light surgeries. Under anesthesia by an intraperitoneal dose of 10% chloral hydrate at 3.50 ml/kg, a polyethylene catheter (0.50 mm ID, 1.00 mm OD, Portex Limited, Hythe, Kent, England) was cannulated into the right jugular vein for intravenous drug administration and blood collection, and another catheter (0.28 mm ID, 0.61 mm OD, Portex Limited, Hythe, Kent, England) was cannulated into the bile fistul for bile collection. After surgery, the rats were placed individually in metabolism cages and allowed to recover for at least 24 h. The rats were fasted over night with free access to water prior to drug administration.
GAA (25 mg) was dissolved in 500 μl of physiological saline containing 2% sodium carbonate and diluted with physiological saline to make the volume of 5 ml (Cheng C.-R. et al., [2013]). The solution was given to rats (n = 5) intravenously at 20 mg/kg through the jugular vein catheter. After dosing and blood sample collection, 0.2 ml of normal saline with 20 units of heparin was injected into the body through the catheter to flush the catheter and prevent blood coagulation.
Rats were held in metabolism cages, blood was collected into heparinized tubes from the jugular vein before (blank) and at 5 and 30 min post dosing, and then centrifuged at 1,500 g for 10 min for plasma separation. At the same time, bile and urine samples were collected before (blank) and over the period of 0–4 h post dosing. All of the collected blank plasma, blank bile, blank urine, dosing plasma, dosing bile or dosing urine from five rats were pooled together respectively and stored at −20°C until assay.
For plasma, an aliquot of 200 μl sample was mixed with 20 μl HCl solution (1 M), and then extracted with 1.5 ml of ethyl acetate by vortex-mixing for 10 min. The ethyl acetate layer was collected and concentrated to dryness by a vacuum concentrator. The residue was reconstituted in 100 μl 80% methanol and centrifuged at 20,000 g for 15 min. The supernatant was collected for HPLC-DAD-MS/MS assay. For bile, an aliquot of 150 μl sample was mixed with 150 μl 80% methanol and 10 μl 5% formic acid, and then centrifuged at 20,000 g for 15 min. The supernatant was collected for HPLC-DAD-MS/MS assay. For urine, an aliquot of 2 ml sample was loaded on a pretreated ODS-C18 cartridge (Agilent AccuBOND, 500 mg). After washing with 5 ml of water, the cartridge was eluted with 10 ml of methanol. The methanol eluate was collected and concentrated to dryness by a vacuum concentrator at 37°C. The residue was reconstituted in 200 μl 80% methanol and centrifuged at 20,000 g for 15 min, and the supernatant was collected for HPLC-DAD-MS/MS assay.
The identification of metabolites were conducted by a HPLC-DAD-MS/MS system equipped with an Agilent 1,260 HPLC system (Agilent Technologies, Santa Clara, CA, USA), 1,260 diode array detector (DAD) and 4,500 Q-Trap mass spectrometer with electrospray ionization source (AB SCIEX, Framingham, MA, USA). Chromatographic separation was performed on a C18 column (100 × 4.6 mm, 2.4 μm, BDS hypersil, Thermo, PA) maintained at 40°C. The mobile phase consisted of acetonitrile (A) and 0.1% formic acid aqueous solution (B) with following gradient elution at a flow rate of 0.40 ml/min: 0–10 min, 20–35% A; 10–20 min, 35% A; 20–25 min, 35–65% A; 25–30 min, 65% A; 30–35 min, 65–20% A; and 35–45 min, 20% A. The DAD spectral data was collected from 190 to 400 nm. The injection volume of all the tested samples was 10 μl. Mass data were acquired in negative mode under the following conditions, ion spray voltage −4,500 V, ion source temperature 450°C, curtain gas 10 psi, nebulizer gas 60 psi and auxiliary gas 60 psi.

[6] = system: rat liver microsomes (RLMs); experiment: Formation kinetics of the metabolites M2 and M4 in RLMs; assay type: in vitro ADME
Procedure: Each of the incubations was performed in triplicate.

[7] = system: rat liver microsomes (RLMs)
Procedure: as §2, §3

[8] = system: human liver microsomes (HLMs)
Procedure: as §2, §3

[9] = system: human liver microsomes (HLMs); conditions: for Vmax of metabolite formation from GAA: HLMs 0.25 mg protein/ml, GAA 1–50 μM, 30 min
Procedure: The formation kinetics of the two main reduction metabolites M2 (GAC2) and M4 (7β,15-dihydroxy-3,11,23-trioxo-lanost-26-oic acid) were determined. The incubations were performed in a medium (100 μl) containing 0.25 mg protein /ml RLMs or HLMs, different concentrations of GAA (1–50 μM), 3.3 mM of MgCl2, 3.0 mM of NADPH and 100 mM of sodium phosphate buffer (pH 7.4). After 10 min of preincubation, GAA at each concentration was incubated with RLMs and HLMs for 5 and 30 min, respectively. The reactions were terminated by adding with 100 μl of ice-cold acetonitrile containing 2 μM GLA used as internal standard (IS). After centrifugation, metabolites in the mixture were analyzed by UFLC-MS/MS detection as described below. The metabolite formation rates vs. GAA concentrations were plotted to obtain the Michaelis-Menten constant (Km) and maximum velocity (Vmax) values of the metabolic reactions. Each of the incubations was performed in triplicate.
The kinetic parameters of GAA metabolism by RLMs or HLMs were calculated by fitting the data to the hyperbolic Michaelis-Menten model: V=Vmax×[S]/Km+[S]
Where Vmax is the maximal velocity of formation, S is the concentration of substrate, Km is the substrate concentration of half maximal velocity, and the intrinsic clearance (CLint) is calculated as Vmax/Km.

CC(=O)N1CCN(c2ccc(OCC3COC(Cn4ccnc4)(c4ccc(Cl)cc4Cl)O3)cc2)CC1 (stereo not shown) [Ketoconazole, ketoconazole]
inhibition at 10 μM (CYP3A [1]): 19.9% | inhibition at 10 μM (CYP3A [2]; formation of metabolite M2, HLMs 0.25 mg/ml, read-out: inhibition of the formation of M2 in HLMs): 56% | inhibition at 10 μM (CYP3A [2]; formation of metabolite M4, HLMs 0.25 mg/ml, read-out: inhibition of the formation of M4 in HLMs): 38.2%

C[C@H](CC(=O)C[C@@H](C)[C@H]1C[C@H](O)[C@@]2(C)C3=C(C(=O)C[C@]12C)[C@@]1(C)CCC(=O)C(C)(C)[C@@H]1C[C@@H]3O)C(=O)O [Metabolite M0, Ganoderic acid A]
tumor metastasis to the liver (EL4 syngeneic mice; EL4 syngeneic mice): decrease tumor metastasis to the liver | survival of EL4 syngeneic mice (EL4 syngeneic mice): significantly prolong the survival | chemosensitivity of HepG2 cells to Cisplatin (HepG2 cells): enhance chemosensitivity | Detected resource 4, RLMs [3]: + | Detected resource 5, HLMs [4]: + | Detected resource 1, rat bile [5]: + | Detected resource 2, rat plasma [5]: + | Detected resource 3, rat urine [5]: +

C[C@H](CC(=O)C[C@@H](C)[C@H]1C[C@H](O)[C@@]2(C)C3=C(C(=O)C[C@]12C)[C@@]1(C)CC[C@H](O)C(C)(C)[C@@H]1C[C@@H]3O)C(=O)O [Metabolite M2, Ganoderic acid C2]
Vmax of metabolite formation from GAA ([6]; RLMs 0.25 mg protein/ml, GAA 1–50 μM, 5 min): 185.81 pmol/min/mg | CLint by RLMs higher than by HLMs ([6]; ratio RLMs vs HLMs): 20 fold | Vmax by RLMs higher than by HLMs ([6]; ratio RLMs vs HLMs): 6 fold | relative abundance of metabolite in RLMs incubations [7]: most abundant | metabolite detected in HLMs incubations [8]: detected | relative abundance of metabolite in HLMs incubations [8]: abundant | Vmax of metabolite formation from GAA [9]: 30.18 pmol/min/mg | Clint of metabolite formation from GAA (Vmax/Km) ([9]; human, pH 7.4): 0.33 µL/min/mg | Km of M2 higher than that of M4 ([9]; in HLMs, ratio M2 vs M4): 15 fold | Km by HLMs higher than by RLMs ([9]; ratio HLMs vs RLMs): approximately 3 fold

CC(CC(=O)CC(C)C1CC(O)C2(C)C3C(O)CC4C(C)(C)C(=O)CCC4(C)C3C(=O)CC12C)C(=O)O (stereo not drawn) [Metabolite M4, 7β,15-dihydroxy-3,11,23-trioxo-lanost-26-oic acid]
metabolite found in RLMs incubations [7]: undetected | metabolite detected in HLMs incubations [8]: detected | relative abundance of metabolite in HLMs incubations [8]: abundant | Vmax of metabolite formation from GAA [9]: 29.70 pmol/min/mg | CLint of M4 formation higher than that of M2 ([9]; human, pH 7.4): 15 fold | Clint of metabolite formation from GAA (Vmax/Km) ([9]; human, pH 7.4): 4.85 µL/min/mg

CC(CC(=O)C[C@@H](C)[C@H]1C[C@H](O)[C@@]2(C)C3=C(C(=O)C[C@]12C)[C@@]1(C)CCC(=O)C(C)(C)[C@@H]1CC3=O)C(=O)O (stereo partly shown) [Metabolite M7, Ganoderic acid J]
Detected resource 1, rat bile [5]: + | Detected resource 2, rat plasma [5]: + | Detected resource 3, rat urine [5]: +

CC(CC(=O)CC(C)C1CC(O)C2(C)C3=C(C(=O)C(O)C12C)C1(C)CCC(=O)C(C)(C)C1CC3O)C(=O)O (stereo not shown) [Metabolite M9, 12-hydroxy ganoderic acid A]
metabolite found in RLMs incubations [7]: found | metabolite detected in HLMs incubations [8]: detected

CC(CC(=O)CC(C)(O)C1CC(O)C2(C)C3=C(C(=O)CC12C)C1(C)CCC(=O)C(C)(C)C1CC3O)C(=O)O (stereo not shown) [Metabolite M11, 20-hydroxy ganoderic acid A]
metabolite found in RLMs incubations [7]: found | metabolite detected in HLMs incubations [8]: detected

CC(CC(=O)CC(C)C1CC(O)C2(C)C3=C(C(=O)CC12C)C1(C)CCC(O)C(C)(CO)C1CC3O)C(=O)O (stereo not drawn) [Metabolite M13, 3,7β,15,28(29)-tetrahydroxy-11, 23-dioxo-lanost-8-en-26-oic acid]
metabolite found in RLMs incubations [7]: detected

CC(CC(=O)CC(C)C1CC(O)C2(C)C3=C(C(=O)C(O)C12C)C1(C)CCC(O)C(C)(C)C1CC3O)C(=O)O (stereo not shown) [Metabolite M15, 12-hydroxy ganoderic acid C2]
metabolite found in RLMs incubations [7]: detected

CC(CC(=O)C[C@@H](C)[C@H]1CC(=O)[C@@]2(C)C3=C(C(=O)C[C@]12C)[C@@]1(C)CC[C@H](O)C(C)(C)[C@@H]1C[C@@H]3O)C(=O)O (stereo partly shown) [Metabolite M18, Ganoderic acid B]
Detected resource 1, rat bile [5]: + | Detected resource 2, rat plasma [5]: +

C[C@H](CC(=O)C[C@@H](C)[C@H]1C[C@H](O)[C@@]2(C)C3=C(C(=O)C[C@]12C)[C@@]1(C)CC[C@H](O[C@@H]2O[C@H](C(=O)O)[C@@H](O)[C@H](O)[C@H]2O)C(C)(C)[C@@H]1C[C@@H]3O)C(=O)O [Metabolite M25, Ganoderic acid C2 3-O-glucuronide]
Detected resource 4, RLMs [3]: + | metabolite found in RLMs incubations [3]: detected | Detected resource 1, rat bile [5]: +

C[C@H](CC(=O)C[C@@H](C)[C@H]1C[C@H](O)[C@@]2(C)C3=C(C(=O)C[C@]12C)[C@@]1(C)CC[C@H](O)C(C)(C)[C@@H]1C[C@@H]3O[C@@H]1O[C@H](C(=O)O)[C@@H](O)[C@H](O)[C@H]1O)C(=O)O [Metabolite M26, Ganoderic acid C2 7-O-glucuronide]
Detected resource 1, rat bile [5]: +

C[C@H](CC(=O)C[C@@H](C)[C@H]1C[C@H](O[C@@H]2O[C@H](C(=O)O)[C@@H](O)[C@H](O)[C@H]2O)[C@@]2(C)C3=C(C(=O)C[C@]12C)[C@@]1(C)CC[C@H](O)C(C)(C)[C@@H]1C[C@@H]3O)C(=O)O [Metabolite M27, Ganoderic acid C2 15-O-glucuronide]
Detected resource 1, rat bile [5]: +

C[C@H](CC(=O)C[C@@H](C)[C@H]1C[C@H](O)[C@@]2(C)C3=C(C(=O)C[C@]12C)[C@@]1(C)CCC(=O)C(C)(C)[C@@H]1C[C@@H]3O[C@@H]1O[C@H](C(=O)O)[C@@H](O)[C@H](O)[C@H]1O)C(=O)O [Metabolite M28, Ganoderic acid A 7-O-glucuronide]
Detected resource 4, RLMs [3]: + | metabolite found in RLMs incubations [3]: found | Detected resource 5, HLMs [4]: + | metabolite detected in HLMs incubations ([4]; HLMs incubations): detected | Detected resource 1, rat bile [5]: + | Detected resource 2, rat plasma [5]: + | Detected resource 3, rat urine [5]: +

CC(CC(=O)C[C@@H](C)[C@H]1CC(O)[C@@]2(C)C3=C(C(O[C@@H]4O[C@H](C(=O)O)[C@@H](O)[C@H](O)[C@H]4O)C[C@]12C)[C@@]1(C)CCC(=O)C(C)(C)[C@@H]1CC3=O)C(=O)O (stereo partly shown) [Metabolite M29, 15-hydroxy-3,7,23-trioxo-lanost-8-en-26-oic acid-11-O-glucuronide]
Detected resource 1, rat bile [5]: + | Detected resource 2, rat plasma [5]: + | Detected resource 3, rat urine [5]: +

C[C@H](CC(=O)C[C@@H](C)[C@H]1C[C@H](O[C@@H]2O[C@H](C(=O)O)[C@@H](O)[C@H](O)[C@H]2O)[C@@]2(C)C3=C(C(=O)C[C@]12C)[C@@]1(C)CCC(=O)C(C)(C)[C@@H]1C[C@@H]3O)C(=O)O [Metabolite M30, Ganoderic acid A 15-O-glucuronide]
Detected resource 1, rat bile [5]: + | Detected resource 3, rat urine [5]: +

CC(CC(=O)C[C@@H](C)[C@H]1CC(O[C@@H]2O[C@H](C(=O)O)[C@@H](O)[C@H](O)[C@H]2O)[C@@]2(C)C3=C(C(O)C[C@]12C)[C@@]1(C)CCC(=O)C(C)(C)[C@@H]1CC3=O)C(=O)O (stereo partly shown) [Metabolite M31, 11-hydroxy-3,7,23-trioxo-lanost-8-en-26-oic acid-15-O-glucuronide]
Detected resource 1, rat bile [5]: + | Detected resource 3, rat urine [5]: +

CC(CC(=O)CC(C)C1CC(O)C2(C)C3=C(C(=O)CC12C)C1(C)CCC(=O)C(C)(CO)C1CC3O)C(=O)O (stereo not shown) [Metabolite M35, 28(29)-hydroxy ganoderic acid A]
metabolite detected in HLMs incubations [8]: detected
